Values joined by “and” are separate entries in the source; they are usually repeats but may differ in a detail not shown here. Equal entries are not always repeated.

The experiment has as its system 485176-168-R4-J1-PDC spheroids with HUVEC/MSC, viability. The experiment in a line: Anticancer human tumor 485176-168-R4-J1-PDC patient-derived pancreatic adenocarcinoma cell line growth inhibition [GQUAD]. To be noted: for viability, T/C: stronger effect = lower value. In outline:
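Tumor cells were grown as complex spheroids with HUVEC endothelial cells and mesenchymal stem cells as stroma. G-quadruplex stabilizers were combined with targeted agents over half-log dilutions from near the clinical Cmax, or from 10 microM.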
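Also: spheroids exposed to compounds for seven days before readout.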
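For viability, T/C in this document: percent viability relative to DMSO vehicle control wells as 100%.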

A word on the viability, T/C: it is the result in the treated group divided by that in the control group, in per cent. What is called IC50 is the concentration needed to halve the response being measured. As for `Cc1[nH]c2ccc(F)cc2c1-c1nc2c3cccnc3c3ncccc3c2[nH]1`, the viability, T/C by setting is: (compound 0.1 µM) 101% [middle of 12 runs]; (compound 0.316 µM) 97.9% [middle of 12 runs]; (compound 1 µM) 99.5% [middle of 12 runs]; (compound 10 µM) 78.8% [middle of 12 runs]. For the same compound, the IC50 (compound alone, run of 03/18/2024) was above 10000 nM and the IC50 (compound alone, run of 03/26/2024) is above 10000 nM.

Turning to `Nc1ccn(C2OC(CO)C(O)C2(F)F)c(=O)n1` (stereo not drawn), the viability, T/C runs as follows: (compound 0.0316 µM) 76.8% and 70.1% and 75.6%; (compound 0.1 µM) 16.7% and 16.1% and 15.4%; (compound 0.316 µM) 11.3% and 7.32% and 9.64%; (compound 1 µM) 10.3% and 9.3% and 8.42%; (compound 3.16 µM) 10.7% and 12.2% and 11.5%; (compound 10 µM) 13% and 12.5% and 11.1%. In addition, the IC50 (curve of compound) is 52.9 nM and 48.4 nM and 51.6 nM.
